Patent US20200163984A1, “USE OF ISOVALERYL SPIRAMYCIN I, II AND/OR III IN MANUFACTURING MEDICAMENT FOR TREATING AND/OR PREVENTING TUMOR, AND MEDICAMENT” (SHENYANG FUYANG PHARMACEUTICAL TECHNOLOGY CO., LTD., priority 2017, published 2020)

What was measured:
[1] = system: transplanted tumor of human breast cancer cell MDA-MB-231; assay: MDA-MB-231 transplanted tumor in nude mice
Procedure: (§1) Then cell concentration was adjusted to 1×10^7/ml with matrigel, then each nude mouse was inoculated subcutaneously with 0.2 ml of cells at its right armpit and recorded as the first day of inoculation. When the tumor grows to be greater than or equal to 100 mm^3, the mice were randomly divided into 11 groups with 6 mice in each group: a model group, a cyclophosphamide group, isovaleryl spiramycin I groups with doses of 25, 50 and 100 mg/kg, isovaleryl spiramycin II groups with doses of 25, 50 and 100 mg/kg, and isovaleryl spiramycin III groups with doses of 25, 50 and 100 mg/kg. Each group was continuously administered intragastrically for 30 days with a dose of 20 ml/kg. The mice were sacrificed the next day after drug withdrawal and the indicators were tested. The long diameter and short diameter of the tumor, and the body weight of each mouse were recorded every 3 days from drug administration to nude mouse sacrifice.
(§2) The body weight of the nude mice and the long diameter (a) and short diameter (b) of the transplanted tumor were measured every 3 days, and the tumor volume (v), relative tumor volume (RTV) and relative tumor proliferation rate (T/C) are calculated respectively according to the following formulas, wherein V=a×b^2/2; RTV=V/V0 (V0 is the tumor volume before administration, V is the tumor volume before sacrifice), and T/C (%)=treatment group RTV/model control group RTV×100%.
(§3) Each mouse was weighed and sacrificed. After the tumor was completely stripped off from the body of the mouse, the non-tumor tissues such as blood stains and fat were removed to weigh the tumor and calculate the tumor growth inhibition rate. The average tumor weight of each group of mice is used as an indicator of efficacy. Tumor growth inhibition rate (%)=(1−the average tumor weight of the treatment group/the average tumor weight of the model group)×100%.

[2] = Thymus index and spleen index of Lewis lung cancer tumor-bearing mice; details: n = 6
Procedure: In the Lewis lung cancer model, the mice inoculated with the tumor were randomly divided into groups with 10 mice in each group the next day of inoculation. The groups included: a model control group, a positive drug cyclophosphamide control group (CTX, 30 mg/kg), isovaleryl spiramycin I groups with doses of 13, 26 and 52 mg/kg; isovaleryl spiramycin II groups with doses of 13, 26 and 52 mg/kg; isovaleryl spiramycin III groups with doses of 13, 26 and 52 mg/kg. Each group was continuously administered intragastrically for 15 days with a dose of 20 ml/kg.

[3] = system: transplanted tumor of human hepatoma cell HepG-2; assay: HepG-2 transplanted tumor in nude mice; details: for Tumor Volume (mm3) (d 1): d1
Procedure: as §1, §2, §3

[4] = system: transplanted tumor of human thyroid cancer cell TPC-1; assay: TPC-1 transplanted tumor in nude mice; details: for Tumor Volume (mm3) (d30): d 30
Procedure: as §1, with “group:” for “group: a model group, a cyclophosphamide group,”
as §2, §3

[5] = system: transplanted tumor of human large cell lung cancer H460 cells; assay: H460 transplanted tumor in nude mice
Procedure: as §1, with “group:” for “group: a model group, a cyclophosphamide group,”
as §2, §3

[6] = MDA-MB-231, 25 mg/kg (low dose) i.g. 30 days
[7] = MDA-MB-231, 50 mg/kg (medium dose) i.g. 30 days
[8] = MDA-MB-231, 100 mg/kg (high dose) i.g. 30 days
[9] = HepG-2, high dose (100 mg/kg in method) i.g. 30 days
[10] = HepG-2, low dose (25 mg/kg in method) i.g. 30 days
[11] = HepG-2, medium dose (50 mg/kg in method) i.g. 30 days
[12] = TPC-1, high dose (100 mg/kg in method) i.g. 30 days
[13] = TPC-1, low dose (25 mg/kg in method) i.g. 30 days
[14] = TPC-1, medium dose (50 mg/kg in method) i.g. 30 days
[15] = H460, 25 mg/kg (low dose) i.g. 30 days
[16] = H460, 50 mg/kg (medium dose) i.g. 30 days
[17] = H460, 100 mg/kg (high dose) i.g. 30 days

COC1C(OC(C)=O)CC(=O)OC(C)CC=CC=CC(OC2CCC(N(C)C)C(C)O2)C(C)CC(CC=O)C1OC1OC(C)C(OC2CC(C)(O)C(OC(=O)CC(C)C)C(C)O2)C(N(C)C)C1O (centres unmarked) [Isovaleryl spiramycin II, isovaleryl spiramycin II]
Inhibition Rate (tumor growth inhibition rate) [1, 6]: 18.17%
Relative Tumor Proliferation Rate (T/C) [1, 6]: 80.22%
Relative Tumor Volume (RTV) [1, 6]: 12.53 ± 1.78
Tumor Volume (d 1) [1, 6]: 119.72 ± 6.52 mm3
Tumor Volume (d 30) [1, 6]: 1493.96 ± 171.49 mm3
Tumor Weight [1, 6]: 1.90 ± 0.31 g
Inhibition Rate (tumor growth inhibition rate) [1, 7]: 29.66%
Relative Tumor Proliferation Rate (T/C) [1, 7]: 58.78%
Relative Tumor Volume (RTV) [1, 7]: 9.18 ± 2.38
Tumor Volume (d 1) [1, 7]: 119.07 ± 3.19 mm3
Tumor Volume (d 30) [1, 7]: 1094.89 ± 291.37 mm3
Tumor Weight [1, 7]: 1.63 ± 0.32 g
Inhibition Rate (tumor growth inhibition rate) [1, 8]: 58.91%
Relative Tumor Proliferation Rate (T/C) [1, 8]: 30.89%
Relative Tumor Volume (RTV) [1, 8]: 6.08 ± 1.74
Tumor Volume (d 1) [1, 8]: 115.89 ± 9.01 mm3
Tumor Volume (d 30) [1, 8]: 700.44 ± 192.38 mm3
Tumor Weight [1, 8]: 0.95 ± 0.42 g
tumor volume and relative tumor volume compared with the model group ([1]; MDA-MB-231, low, medium and high doses, P<0.05): significantly lower
mouse weight compared with the model group ([1]; mouse, in vivo): no significant changes
Spleen Index (%) ([2]; dose 13 mg/kg): 0.75 ± 0.24%
Thymus Index (%) ([2]; dose 13 mg/kg): 0.12 ± 0.08%
Spleen Index (%) ([2]; dose 26 mg/kg): 0.68 ± 0.21%
Thymus Index (%) ([2]; dose 26 mg/kg): 0.14 ± 0.02%
Spleen Index (%) ([2]; dose 52 mg/kg): 0.66 ± 0.17%
Thymus Index (%) ([2]; dose 52 mg/kg): 0.15 ± 0.09%
Relative Tumor Proliferation Rate (T/C) [3, 9]: 39.31%
tumor growth inhibition rate [3, 9]: 61.56%
Relative Tumor Proliferation Rate (T/C) [3, 10]: 81.03%
tumor growth inhibition rate [3, 10]: 21.07%
tumor volume and relative tumor volume compared with the model group ([3]; HepG-2, low, medium and high doses, P<0.05): significantly lower
Relative Tumor Proliferation Rate (T/C) [3, 11]: 57.02%
tumor growth inhibition rate [3, 11]: 31.43%
Inhibition Rate (%) ([3]; HepG-2 nude mice, 25 mg/kg): 21.07%
Relative Tumor Proliferation Rate (T/C) ([3]; HepG-2 nude mice, 25 mg/kg): 81.03%
Relative Tumor Volume (RTV) ([3]; HepG-2 nude mice, 25 mg/kg): 13.57 ± 1.64
Tumor Weight ([3]; HepG-2 nude mice, 25 mg/kg): 1.92 ± 0.32 g
Tumor Volume (mm3) (d 1) ([3]; HepG-2 nude mice, 25 mg/kg): 122.82 ± 4.10 mm3
Tumor Volume (mm3) (d30) ([3]; HepG-2 nude mice, 25 mg/kg): 1666.11 ± 202.07 mm3
Inhibition Rate (%) ([3]; HepG-2 nude mice, 50 mg/kg): 31.43%
Relative Tumor Proliferation Rate (T/C) ([3]; HepG-2 nude mice, 50 mg/kg): 57.02%
Relative Tumor Volume (RTV) ([3]; HepG-2 nude mice, 50 mg/kg): 9.55 ± 2.84
Tumor Weight ([3]; HepG-2 nude mice, 50 mg/kg): 1.67 ± 0.32 g
Tumor Volume (mm3) (d 1) ([3]; HepG-2 nude mice, 50 mg/kg): 118.60 ± 4.30 mm3
Tumor Volume (mm3) (d30) ([3]; HepG-2 nude mice, 50 mg/kg): 1127.90 ± 319.12 mm3
Inhibition Rate (%) ([3]; HepG-2 nude mice, 100 mg/kg): 61.56%
Relative Tumor Proliferation Rate (T/C) ([3]; HepG-2 nude mice, 100 mg/kg): 39.31%
Relative Tumor Volume (RTV) ([3]; HepG-2 nude mice, 100 mg/kg): 6.58 ± 2.48
Tumor Weight ([3]; HepG-2 nude mice, 100 mg/kg): 0.93 ± 0.41 g
Tumor Volume (mm3) (d 1) ([3]; HepG-2 nude mice, 100 mg/kg): 118.70 ± 7.20 mm3
Tumor Volume (mm3) (d30) ([3]; HepG-2 nude mice, 100 mg/kg): 783.73 ± 312.41 mm3
mouse weight compared with the model group ([3]; mouse, in vivo): no significant changes
Body Weight (g) (d1) ([3]; mouse, in vivo, 25 mg/kg): 21.98 ± 1.74 g
Body Weight (g) (d30) ([3]; mouse, in vivo, 25 mg/kg): 23.35 ± 1.83 g
Body Weight (g) (d1) ([3]; mouse, in vivo, 50 mg/kg): 20.75 ± 1.86 g
Body Weight (g) (d30) ([3]; mouse, in vivo, 50 mg/kg): 22.22 ± 1.62 g
Body Weight (g) (d1) ([3]; mouse, in vivo, 100 mg/kg): 21.48 ± 1.98 g
Body Weight (g) (d30) ([3]; mouse, in vivo, 100 mg/kg): 22.45 ± 1.28 g
Relative Tumor Proliferation Rate (T/C) [4, 12]: 38.61%
tumor growth inhibition rate [4, 12]: 62.04%
Relative Tumor Proliferation Rate (T/C) [4, 13]: 86.15%
tumor growth inhibition rate [4, 13]: 20.91%
tumor volume and relative tumor volume compared with the model group ([4]; TPC-1, low, medium and high doses, P<0.05): significantly lower
Relative Tumor Proliferation Rate (T/C) [4, 14]: 59.08%
tumor growth inhibition rate [4, 14]: 31.61%
Inhibition Rate (%) ([4]; dose 25 mg/kg): 20.91%
Relative Tumor Proliferation Rate (T/C) ([4]; dose 25 mg/kg): 86.15%
Relative Tumor Volume (RTV) ([4]; dose 25 mg/kg): 14.18 ± 1.70
Tumor Weight ([4]; dose 25 mg/kg): 1.91 ± 0.33 g
Tumor Volume (mm3) (d 1) ([4]; dose 25 mg/kg): 119.12 ± 3.42 mm3
Tumor Volume (mm3) (d30) ([4]; dose 25 mg/kg): 1689.63 ± 210.37 mm3
Inhibition Rate (%) ([4]; dose 50 mg/kg): 31.61%
Relative Tumor Proliferation Rate (T/C) ([4]; dose 50 mg/kg): 59.08%
Relative Tumor Volume (RTV) ([4]; dose 50 mg/kg): 9.72 ± 3.02
Tumor Weight ([4]; dose 50 mg/kg): 1.65 ± 0.32 g
Tumor Volume (mm3) (d 1) ([4]; dose 50 mg/kg): 118.54 ± 6.49 mm3
Tumor Volume (mm3) (d30) ([4]; dose 50 mg/kg): 1148.57 ± 344.78 mm3
Inhibition Rate (%) ([4]; dose 100 mg/kg): 62.04%
Relative Tumor Proliferation Rate (T/C) ([4]; dose 100 mg/kg): 38.61%
Relative Tumor Volume (RTV) ([4]; dose 100 mg/kg): 6.36 ± 2.38
Tumor Weight ([4]; dose 100 mg/kg): 0.92 ± 0.42 g
Tumor Volume (mm3) (d 1) ([4]; dose 100 mg/kg): 117.30 ± 6.48 mm3
Tumor Volume (mm3) (d30) ([4]; dose 100 mg/kg): 754.42 ± 320.69 mm3
mouse weight compared with the model group ([4]; mouse, in vivo): no significant changes
Body Weight (g) (d1) ([4]; mouse, in vivo, 25 mg/kg): 20.54 ± 1.45 g
Body Weight (g) (d30) ([4]; mouse, in vivo, 25 mg/kg): 21.16 ± 1.37 g
Body Weight (g) (d1) ([4]; mouse, in vivo, 50 mg/kg): 20.07 ± 1.13 g
Body Weight (g) (d30) ([4]; mouse, in vivo, 50 mg/kg): 12.45 ± 1.63 g
Body Weight (g) (d1) ([4]; mouse, in vivo, 100 mg/kg): 21.78 ± 1.53 g
Body Weight (g) (d30) ([4]; mouse, in vivo, 100 mg/kg): 12.11 ± 1.20 g
Inhibition Rate (tumor growth inhibition rate) [5, 15]: 14.22%
Relative Tumor Proliferation Rate (T/C) [5, 15]: 51.97%
Relative Tumor Volume (RTV) [5, 15]: 5.46 ± 1.87
Tumor Volume (d 1) [5, 15]: 147.44 ± 15.40 mm3
Tumor Volume (d 30) [5, 15]: 804.17 ± 292.57 mm3
Tumor Weight [5, 15]: 1.48 ± 0.24 g
Inhibition Rate (tumor growth inhibition rate) [5, 16]: 34.43%
Relative Tumor Proliferation Rate (T/C) [5, 16]: 46.49%
Relative Tumor Volume (RTV) [5, 16]: 4.88 ± 1.36
Tumor Volume (d 1) [5, 16]: 146.77 ± 18.26 mm3
Tumor Volume (d 30) [5, 16]: 700.40 ± 143.83 mm3
Tumor Weight [5, 16]: 1.13 ± 0.08 g
Inhibition Rate (tumor growth inhibition rate) [5, 17]: 61.12%
Relative Tumor Proliferation Rate (T/C) [5, 17]: 37.89%
Relative Tumor Volume (RTV) [5, 17]: 3.98 ± 1.10
Tumor Volume (d 1) [5, 17]: 149.76 ± 13.12 mm3
Tumor Volume (d 30) [5, 17]: 604.38 ± 195.98 mm3
Tumor Weight [5, 17]: 0.67 ± 0.20 g
tumor volume and relative tumor volume compared with the model group ([5]; H460, low, medium and high doses, P<0.05): significantly lower
mouse weight compared with the model group ([5]; mouse, in vivo): no significant changes
